# Experimental data: PubChem BioAssay (NCI)
#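 48-hour exposure; five concentrations; linearly interpolated endpoints. Here, GI50 denotes the concentration required for 50% inhibition of growth. TGI: concentration producing complete growth inhibition.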
# How the values were obtained:
# Experiment in all cases: DTP human tumour cell line panel, 48 h
# CCRF-CEM leukemia = tested on: CCRF-CEM leukemia
# HT29 colon = tested on: HT29 colon
# IGROV1 ovarian = tested on: IGROV1 ovarian
# RXF 393 renal = tested on: RXF 393 renal
# PC-3 prostate = tested on: PC-3 prostate
# SR leukemia = tested on: SR leukemia
# SF-268 CNS = tested on: SF-268 CNS
# A549 NSCLC = tested on: A549 NSCLC
# ACHN renal = tested on: ACHN renal
# CAKI-1 renal = tested on: CAKI-1 renal
# UACC-257 melanoma = tested on: UACC-257 melanoma
# NCI-H522 lung = tested on: NCI-H522 lung
# HCT-116 colon = tested on: HCT-116 colon
# NCI-H226 lung = tested on: NCI-H226 lung
# MDA-MB-468 breast = tested on: MDA-MB-468 breast
# U251 CNS = tested on: U251 CNS
# NCI/ADR-RES ovarian = tested on: NCI/ADR-RES ovarian
# SK-OV-3 ovarian = tested on: SK-OV-3 ovarian
# BT-549 breast = tested on: BT-549 breast
# 786-0 renal = tested on: 786-0 renal
# T-47D breast = tested on: T-47D breast
# SK-MEL-5 melanoma = tested on: SK-MEL-5 melanoma
# EKVX NSCLC = tested on: EKVX NSCLC
# K-562 leukemia = tested on: K-562 leukemia
# HOP-92 NSCLC = tested on: HOP-92 NSCLC
# SNB-19 CNS = tested on: SNB-19 CNS
# HS 578T breast = tested on: HS 578T breast
# DU-145 prostate = tested on: DU-145 prostate
# RPMI-8226 leukemia = tested on: RPMI-8226 leukemia
# HOP-62 NSCLC = tested on: HOP-62 NSCLC
# SK-MEL-28 melanoma = tested on: SK-MEL-28 melanoma
# SF-295 CNS = tested on: SF-295 CNS
# A498 renal = tested on: A498 renal
# SW-620 colon = tested on: SW-620 colon
# OVCAR-8 ovarian = tested on: OVCAR-8 ovarian
# MOLT-4 leukemia = tested on: MOLT-4 leukemia
# OVCAR-3 ovarian = tested on: OVCAR-3 ovarian
# SN12C renal = tested on: SN12C renal
# MDA-MB-435 = tested on: MDA-MB-435
# M14 melanoma = tested on: M14 melanoma
# UACC-62 melanoma = tested on: UACC-62 melanoma
# MALME-3M melanoma = tested on: MALME-3M melanoma
# LOX IMVI melanoma = tested on: LOX IMVI melanoma
# TK-10 renal = tested on: TK-10 renal
# SF-539 CNS = tested on: SF-539 CNS
# HCC-2998 colon = tested on: HCC-2998 colon
# COLO 205 colon = tested on: COLO 205 colon
# OVCAR-4 ovarian = tested on: OVCAR-4 ovarian
# HL-60(TB) leukemia = tested on: HL-60(TB) leukemia
# NCI-H23 lung = tested on: NCI-H23 lung
# MCF7 breast = tested on: MCF7 breast
# OVCAR-5 ovarian = tested on: OVCAR-5 ovarian
# HCT-15 colon = tested on: HCT-15 colon
# KM12 colon = tested on: KM12 colon
# NCI-H460 lung = tested on: NCI-H460 lung
compound,measurement,setting,value
CC[C@]12C=CCN3CC[C@@]4(c5ccc(OC)cc5N(C)[C@H]4[C@@](O)(C(=O)OC)[C@@H]1OC(=O)CCC[P+](C1CCCCC1)(C1CCCCC1)C1CCCCC1)[C@@H]32,GI50,CCRF-CEM leukemia,1.69 µM
same,TGI,CCRF-CEM leukemia,11.6 µM
same,GI50,HT29 colon,1.88 µM
same,TGI,HT29 colon,4.05 µM
same,GI50,IGROV1 ovarian,1.39 µM
same,TGI,IGROV1 ovarian,5.28 µM
same,GI50,RXF 393 renal,1.47 µM
same,TGI,RXF 393 renal,5.04 µM
same,GI50,PC-3 prostate,1.71 µM
same,TGI,PC-3 prostate,11.4 µM
same,GI50,SR leukemia,1.35 µM
same,TGI,SR leukemia,4.01 µM
same,GI50,SF-268 CNS,3.23 µM
same,TGI,SF-268 CNS,13 µM
same,GI50,A549 NSCLC,3.46 µM
same,TGI,A549 NSCLC,13.7 µM
same,GI50,ACHN renal,15.2 µM
same,TGI,ACHN renal,28.6 µM
same,GI50,CAKI-1 renal,16.4 µM
same,TGI,CAKI-1 renal,30.3 µM
same,GI50,UACC-257 melanoma,1.26 µM
same,TGI,UACC-257 melanoma,3.34 µM
same,GI50,NCI-H522 lung,0.688 µM
same,TGI,NCI-H522 lung,4.98 µM
same,GI50,HCT-116 colon,2.85 µM
same,TGI,HCT-116 colon,11.4 µM
same,GI50,NCI-H226 lung,4.06 µM
same,TGI,NCI-H226 lung,17.2 µM
same,GI50,MDA-MB-468 breast,0.313 µM
same,TGI,MDA-MB-468 breast,1.29 µM
same,GI50,U251 CNS,0.746 µM
same,TGI,U251 CNS,11.8 µM
same,GI50,NCI/ADR-RES ovarian,35.6 µM
same,TGI,NCI/ADR-RES ovarian,> 100 µM
same,GI50,SK-OV-3 ovarian,2.59 µM
same,TGI,SK-OV-3 ovarian,7.57 µM
same,GI50,BT-549 breast,2.44 µM
same,TGI,BT-549 breast,5.82 µM
same,GI50,786-0 renal,4.45 µM
same,TGI,786-0 renal,16.7 µM
same,GI50,T-47D breast,1.32 µM
same,TGI,T-47D breast,11.4 µM
same,GI50,SK-MEL-5 melanoma,1.76 µM
same,TGI,SK-MEL-5 melanoma,3.28 µM
same,GI50,EKVX NSCLC,3.09 µM
same,TGI,EKVX NSCLC,16 µM
same,GI50,K-562 leukemia,1.32 µM
same,TGI,K-562 leukemia,12.5 µM
same,GI50,HOP-92 NSCLC,1.01 µM
same,TGI,HOP-92 NSCLC,4.03 µM
same,GI50,SNB-19 CNS,2.22 µM
same,TGI,SNB-19 CNS,11.5 µM
same,GI50,HS 578T breast,2.45 µM
same,TGI,HS 578T breast,7.91 µM
same,GI50,DU-145 prostate,3.75 µM
same,TGI,DU-145 prostate,15.2 µM
same,GI50,RPMI-8226 leukemia,0.383 µM
same,TGI,RPMI-8226 leukemia,2.22 µM
same,GI50,HOP-62 NSCLC,3.68 µM
same,TGI,HOP-62 NSCLC,13.7 µM
same,GI50,SK-MEL-28 melanoma,1.08 µM
same,TGI,SK-MEL-28 melanoma,2.76 µM
same,GI50,SF-295 CNS,4.41 µM
same,TGI,SF-295 CNS,16.5 µM
same,GI50,A498 renal,12.4 µM
same,TGI,A498 renal,26.2 µM
same,GI50,SW-620 colon,2.95 µM
same,TGI,SW-620 colon,14.6 µM
same,GI50,OVCAR-8 ovarian,2.97 µM
same,TGI,OVCAR-8 ovarian,11.7 µM
same,GI50,MOLT-4 leukemia,2.16 µM
same,TGI,MOLT-4 leukemia,6.51 µM
same,GI50,OVCAR-3 ovarian,1.74 µM
same,TGI,OVCAR-3 ovarian,9.08 µM
same,GI50,SN12C renal,2.89 µM
same,TGI,SN12C renal,10.1 µM
same,GI50,MDA-MB-435,1.83 µM
same,TGI,MDA-MB-435,5.33 µM
same,GI50,M14 melanoma,1.92 µM
same,TGI,M14 melanoma,8.29 µM
same,GI50,UACC-62 melanoma,1.41 µM
same,TGI,UACC-62 melanoma,3.06 µM
same,GI50,MALME-3M melanoma,1.46 µM
same,TGI,MALME-3M melanoma,3.26 µM
same,GI50,LOX IMVI melanoma,2.88 µM
same,TGI,LOX IMVI melanoma,10.5 µM
same,GI50,TK-10 renal,2.73 µM
same,TGI,TK-10 renal,12.1 µM
same,GI50,SF-539 CNS,2.94 µM
same,TGI,SF-539 CNS,10.7 µM
same,GI50,HCC-2998 colon,1.7 µM
same,TGI,HCC-2998 colon,7.68 µM
same,GI50,COLO 205 colon,0.43 µM
same,TGI,COLO 205 colon,1.44 µM
same,GI50,OVCAR-4 ovarian,2.39 µM
same,TGI,OVCAR-4 ovarian,12.4 µM
same,GI50,HL-60(TB) leukemia,0.322 µM
same,TGI,HL-60(TB) leukemia,1.34 µM
same,GI50,NCI-H23 lung,2.31 µM
same,TGI,NCI-H23 lung,8.3 µM
same,GI50,MCF7 breast,1.19 µM
same,TGI,MCF7 breast,7.67 µM
same,GI50,OVCAR-5 ovarian,3.19 µM
same,TGI,OVCAR-5 ovarian,12 µM
same,GI50,HCT-15 colon,15.3 µM
same,TGI,HCT-15 colon,29.2 µM
same,GI50,KM12 colon,1.63 µM
same,TGI,KM12 colon,4.08 µM
same,GI50,NCI-H460 lung,2.77 µM
same,TGI,NCI-H460 lung,11.3 µM
